By IC50 is commonly meant the concentration that gives 50% inhibition. The low end stands for higher potency, the high end for lower potency.

The text below walks through data of US7344829B2, “Methods for detecting the efficacy of anticancer treatments” (Board of Regents, the University of Texas System, priority 2000, dated 2008).

One data set deals with T1, Flk (Mus musculus, UniProt P35918).
T1 construct: GST-fused kinase domains of Kdr, Flt-1, Flk, Tek, c-Met, and c-Kit were expressed in baculovirus; GST; made in house
The experiment in a line: GST-fused kinase domain assay, Flk. The class given is biochemical. As for the experimental part: (§1) GST-fused kinase domains of Kdr, Flt-1, Flk, Tek, c-Met, and c-Kit were expressed in baculovirus and purified over glutathione-Sepharose. Kinase inhibition was measured by detecting the decrease in phosphorylation of poly(Glu,Tyr 4:1) essentially as previously described for EGF-R. Each kinase was incubated under optimized buffer conditions in 20 mM Tris-HCl, pH 7.5, 1–3 mM MnCl2, 3–10 mM MgCl2, 10 μM Na3VO4, 1 mM DTT, 0.2 μCi/[γ-^33P]ATP, 1–8 μM ATP, 3–8 μg/ml poly(Glu,Tyr 4:1), 1% DMSO in a total volume of 30 μl in the presence or absence of PKI166 for 10 min at ambient temperature. Reactions were terminated by adding 10 μl of 250 mM EDTA, and the reaction mixture was transferred onto an Immobilon-PVDG membrane (Millipore, Bedford, Mass.). Following a washing (0.5% H3PO4), a soaking in EtOH, and drying, filters were counted in a liquid scintillation counter. IC50 values for PKI166 were calculated by linear regression analysis of the percentage inhibition. Inhibition of Cdc2/cyclin B protein kinase (Arion et al. 1988; Partanen et al. 1991) and PKC (McGlynn et al. 1992b) was assayed as previously described.

A further data set has as its target PKC-α (Homo sapiens, UniProt P17252). The experiment in a line: PKC inhibition assay. The class given is biochemical. As for the experimental part:
as §1

For another data set, the target named is Cdc2/cyclin B. The experiment in a line: Cdc2/cyclin B protein kinase inhibition assay. The class given is biochemical. The procedure: GST-fused kinase domains of Kdr, Flt-1, Flk, Tek, c-Met, and c-Kit were expressed in baculovirus and purified over glutathione-Sepharose. Kinase inhibition was measured by detecting the decrease in phosphorylation of poly(Glu,[…]:1) essentially as previously described for EGF-R. […] Reactions were terminated by adding 10 μl of 250 mM EDTA, and the reaction mixture was transferred onto an Immobilon-PVDG membrane (Millipore, Bedford, Mass.). Following a washing (0.5% H3PO4), a soaking in EtOH, and drying, filters were counted in a liquid scintillation counter. […] Inhibition of Cdc2/cyclin B protein kinase (Arion et al. 1988; […] et al. 1991) and […] et al. 1992b) was assayed as previously described.

In another data set the target is T2, EGF-R (Homo sapiens, UniProt P00533).
T2 construct: endogenous in cells; host or cells: L3.6pl human pancreatic cancer cells
The experiment in a line: Western blot analysis of EGF-R autophosphorylation in L3.6pl cells. The settings on record: 60 min pretreatment, 0.01–0.5 μM, then EGF. The data set is classed as cell-based. As for the experimental part:
Western Blot Analysis of EGF-R Autophosphorylation following Treatment with PKI166. […] without 40 ng/ml rhEGF for 10 min, washed, and scraped into PBS containing 5 mM EDTA and 1 mM Na Orthovanadate, and centrifuged, and the pellet resuspended in lysis buffer (20 mM Tris-HCl, pH 8.0, 137 mM NaCl, 10% glycerol, 2 mM EDTA, 1 mM phenylmethylsulfonyl fluoride, 20 μM leupeptin, and 0.15 U/ml aprotinin) sonicated, and centrifuged to recover […] protein. Immunoprecipitation was performed using Mab anti-EGF-R (clone EGF-RI) as described previously (Perrotte et al. 1999; Parker et al. 1998). Immunoprecipitates were analyzed on 7.5% NaDodSO4-PAGE and transferred onto 0.45-μm nitrocellulose membranes. The filters were blocked with 3% bovine serum albumin in TDS (20 mM Tris-HCl, pH 7.5, 150 mM NaCl), probed with either polyclonal sheep anti-human EGF-R (1:1000) or monoclonal anti-phosphotyrosine (Mab 4G10) (1:2000) in TTBS (0.1% Tween 20 in TBS), and incubated with horseradish peroxidase-conjugated donkey anti-sheep IgG (1:2000) (Sigma Immunochemicals, St. Louis, Mo.) or sheep anti-mouse IgG (1:2000), respectively, in TTBS. Protein bands were visualized by ECL detection system. For an additional experiment, serum-starved L3.6pl cells were treated with gemcitabine (10 nM) with or without PKI166 (0.05, 0.5 μM) for 1 h, and then incubated with or without rhEGF (40 ng/ml) for 10 min. […]
In general terms: Immunoblotting shows a protein as a band on a membrane.

Data set [1] deals with T3, phosphorylated (activated) EGF-R (Mus musculus, UniProt Q01279).
T3 construct: from tissue; host or cells: UV-2237 fibrosarcoma tumours and dorsal skin/hair follicles of C3H/HeN mice
The experiment in a line: Activated EGF-R in UV-2237 fibrosarcoma tumors and skin/hair follicles of mice (immunohistochemistry). The data set is classed as in vivo, C3H/HeN mice. Particulars: 6 administrations. The procedure: C3H/HeN mice were injected subcutaneously with UV-2237 fibrosarcoma cells. Seven days after the implantation, the mice were given 3 weekley oral administrations of PBS, 10 mg/kg PKI166, 50 mg/kg PKI166, and 100 mg/kg PKI166. The mice were killed on day 15 of treatment (6 oral administrations), i.e., one day after the last oral administration.
The tumors were harvested and processed for immunohistochemistry. The contralateral dorsal skin and hair were excised and prepare for immunohistochemistry. The tumors and skin/hair samples were sectioned and stained with antibodies against the EGF-R and antibodies against the phosphorylated (activated) EGF-R. The results are shown in FIG. 8.

Data set [2] deals with L3.6pl human pancreatic cancer cells.
Excerpt: Animals and Orthotopic Implantation of Tumor Cells. Male athymic nude mice (NCr-nu) were purchased from the Animal Production Area of the National Cancer Institute-Frederick Cancer Research and Development Center (Frederick, Md.). The mice were housed and maintained in laminar flow cabinets under specific pathogen-free conditions in facilities approved by the American Association for Accreditation of Laboratory Animal Care and in accordance with current regulations and standards of the U. S. Department of Agriculture, U.S. Department of Health and Human Services, and the National Institutes of Health. The mice were used in accordance with institutional guidelines when they were 8 to 12 wk old.
Orthotopic Implantation of Tumor Cells. To produce tumors, L3.6pl cells were harvested from subconfluent cultures by a brief exposure to 0.25% trypsin and 0.02% EDTA. Trypsinization was stopped with medium containing 10% FBS, and the cells were washed once in serum-free medium and resuspended in HBSS. Only suspensions consisting of single cells with greater than 90% viability were used for the injections. Cells were injected into the pancreas as described previously. The mice were killed when moribund (5–6 wk). The size and weight of the primary pancreatic tumors, the incidence of regional (celiac and paraaortal) lymph node metastasis, and the number of liver metastases were recorded. Histopathology confirmed the nature of the disease.
Therapy of Established Human Pancreatic Carcinoma Tumors Growing in the Pancreas of Athymic Nude Mice. Seven days after implantation of tumor cells into the pancreas, 5 mice were killed and the presence of tumor lesions was determined. At this time, the median tumor volume was 18 mm^3. Histological examination confirmed the lesions to be actively growing pancreatic cancer.
Necropsy Procedures and Histological Studies. Mice were euthanized and the body weight was determined. Primary tumors in the pancreas were excised and weighed. […] Visible liver metastases were counted with the aid of a dissecting microscope and processed for H&E staining. All macroscopically enlarged regional (celiac and paraaortal) lymph nodes were harvested, and the presence of metastatic disease was confirmed by histology.

T1 sequence (P35918 832-1160 limits assumed): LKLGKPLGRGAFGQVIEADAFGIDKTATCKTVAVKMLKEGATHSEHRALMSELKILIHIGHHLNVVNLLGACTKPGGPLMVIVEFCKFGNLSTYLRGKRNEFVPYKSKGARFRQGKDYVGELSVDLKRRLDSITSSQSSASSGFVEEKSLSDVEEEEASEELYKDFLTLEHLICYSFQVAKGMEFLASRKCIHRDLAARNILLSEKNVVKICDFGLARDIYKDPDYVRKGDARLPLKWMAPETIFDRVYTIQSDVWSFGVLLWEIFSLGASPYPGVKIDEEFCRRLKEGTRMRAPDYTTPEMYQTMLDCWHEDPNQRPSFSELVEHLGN
T2 sequence (P00533 25-1210): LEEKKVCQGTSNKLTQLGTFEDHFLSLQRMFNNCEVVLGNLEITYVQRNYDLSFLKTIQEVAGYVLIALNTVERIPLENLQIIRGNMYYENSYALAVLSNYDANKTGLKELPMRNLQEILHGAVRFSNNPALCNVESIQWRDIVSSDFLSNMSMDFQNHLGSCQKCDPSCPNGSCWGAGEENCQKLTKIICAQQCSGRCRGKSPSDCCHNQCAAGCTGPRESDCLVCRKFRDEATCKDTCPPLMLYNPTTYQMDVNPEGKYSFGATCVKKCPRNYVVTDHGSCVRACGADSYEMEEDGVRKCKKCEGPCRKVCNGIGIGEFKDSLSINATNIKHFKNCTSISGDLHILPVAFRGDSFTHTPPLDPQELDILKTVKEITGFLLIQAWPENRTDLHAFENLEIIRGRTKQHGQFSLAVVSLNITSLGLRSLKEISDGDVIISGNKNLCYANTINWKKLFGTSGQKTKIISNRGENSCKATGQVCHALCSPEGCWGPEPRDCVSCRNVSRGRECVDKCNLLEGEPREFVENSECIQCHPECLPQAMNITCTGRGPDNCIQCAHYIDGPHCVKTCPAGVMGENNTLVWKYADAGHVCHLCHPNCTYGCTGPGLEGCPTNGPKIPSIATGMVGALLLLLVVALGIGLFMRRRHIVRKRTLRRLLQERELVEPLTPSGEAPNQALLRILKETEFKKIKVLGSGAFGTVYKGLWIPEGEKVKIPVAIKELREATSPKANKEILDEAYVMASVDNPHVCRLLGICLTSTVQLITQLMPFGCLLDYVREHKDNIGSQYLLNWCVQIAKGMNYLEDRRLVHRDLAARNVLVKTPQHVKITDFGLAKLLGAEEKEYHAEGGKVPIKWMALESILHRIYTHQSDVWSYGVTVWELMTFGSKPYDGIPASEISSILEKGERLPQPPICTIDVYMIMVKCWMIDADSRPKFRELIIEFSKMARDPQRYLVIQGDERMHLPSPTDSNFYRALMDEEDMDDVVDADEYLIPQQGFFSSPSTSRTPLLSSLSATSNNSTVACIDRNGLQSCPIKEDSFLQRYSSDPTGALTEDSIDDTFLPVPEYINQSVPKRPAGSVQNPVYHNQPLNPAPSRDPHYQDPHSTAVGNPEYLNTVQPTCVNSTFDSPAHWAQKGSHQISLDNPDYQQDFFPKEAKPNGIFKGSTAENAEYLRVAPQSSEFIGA

As to `C[C@@H](Nc1ncnc2[nH]c(-c3ccc(O)cc3)cc12)c1ccccc1` [PKI166, 4-(R)-phenethylamino-6-(hydroxyl) phenyl-7H-pyrrolo[2.3-d]-pyrimidine], the IC50 against Flk is > 1 µM; on PKC-α, > 100 µM; against Cdc2/cyclin B, 78 µM. Moreover, the “Inhibition of EGF-stimulated EGF-R autophosphorylation” value on EGF-R was “inhibited the autophosphorylation in a dose-dependent manner”. The “Expression of activated EGF-R in tumors or skin/hair follicles” value in data set [1] (oral 10 mg/kg) is listed as “did not decrease”. For the same compound, the “Phosphorylation of EGF-R in tumors and skin/hair follicles” value in data set [1] (oral 50 mg/kg or 100 mg/kg) is given as “inhibited phosphorylation”. In addition, in data set [2] (day 35), the “Histologically positive regional lymph node metastases, share of animals” value is recorded as 90%. The “Reduction of growth of primary pancreatic neoplasms” value in data set [2] (human pancreatic carcinoma in pancreas of nude mice) is reported as 45%. Besides, the “Tolerability as determined by maintenance of body weight” value in data set [2] (mouse, in vivo, po, 100 mg/kg) is on record as “well tolerated”.
